# Reference: patent publication US11167012B2, “Peptide inhibition of CCR3-mediated diseases or conditions” (The Board of Trustees of the University of Illinois, priority 2015, dated 2021)
# Entries after “also recorded” stand apart in the source; their conditions may differ. Primed or numbered codes have the meaning given here. Where no end group is shown, it is not given here. PEG27′ = polyethylene glycol chain of 27 units
# Tests used:
# 4DE4-CCR3 cells = assay: Cytotoxicity in 4DE4-CCR3 cells; format: cell-based, mouse; conditions: concentrations tested in chemotaxis assay
# CCR3 [1] = target: T1, CCR3 (Homo sapiens, UniProt P51677); assay: Eotaxin-induced chemotaxis of 4DE4-CCR3 cells; format: cell-based; parameters: expressed in transfected cells; host or cells: 4DE4 mouse pre-B cell lymphoma line; conditions: 80 nM eotaxin, 4 hours
# T1 sequence (P51677 1-355): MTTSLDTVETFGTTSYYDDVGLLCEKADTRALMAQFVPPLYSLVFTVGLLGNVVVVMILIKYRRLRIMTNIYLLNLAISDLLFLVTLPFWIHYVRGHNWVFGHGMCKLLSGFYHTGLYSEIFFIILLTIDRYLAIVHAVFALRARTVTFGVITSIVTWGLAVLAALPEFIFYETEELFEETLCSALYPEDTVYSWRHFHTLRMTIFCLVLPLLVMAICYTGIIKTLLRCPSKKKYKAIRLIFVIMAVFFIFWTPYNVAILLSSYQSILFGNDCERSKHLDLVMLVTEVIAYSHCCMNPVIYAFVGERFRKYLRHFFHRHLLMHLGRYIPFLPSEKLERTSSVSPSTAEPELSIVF
# Procedure: Cells were pretreated with, and then allowed to migrate towards, 80 nM eotaxin in the presence of the various CCR3 transmembrane peptides for 4 hours. Data are from three independent experiments. Error bars represent SEM.
# To determine the effects of these peptides on CCR3-mediated chemotaxis, 4DE4-CCR3 cells were allowed to migrate to eotaxin/CCL11 in the presence of each peptide. 4DE4-CCR3, a mouse pre-B cell lymphoma line engineered to stably express human CCR3, has been used extensively to study CCR3 expression and CCR3-mediated chemotaxis.
# ERK1/2 phosphorylation = assay: Signal transduction assay, Western blotting of phospho-ERK1/2 in AML14.3D10-CCR3 cells; format: cell-based, human; conditions: 10 μM, CCL11-induced
# Procedure: Phospho-ERK was detected using a specific antibody. The membrane was stripped and reprobed for total ERK1/2 as loading control. Immunoblots were quantified by densitometry using ImageJ. PD: PD184161, MEK inhibitor.
# AML14.3D10-CCR3 cells were serum starved for 16 hours. Cells were pretreated with vehicle control, R3-2-1 or PD184161 for 30 minutes at 37° C., and subsequently stimulated with 8 nM CCL5 or CCL11 for 2 minutes. Stimulation was stopped by adding ice cold PBS. Cells were centrifuged and lysed in RIPA buffer containing protease and phosphatase inhibitors. Cell lysates were resolved on a 12% SDS-PAGE gel (10 μg/lane), transferred to PVDF membrane and blocked in 5% milk. Phospho-ERK1/2 was detected using rabbit monoclonal antibody (clone D13.14.4E, Cell Signaling Technology, Danvers, Mass.) and secondary goat anti-rabbit IgG-HRP (Santa Cruz Biotechnology, Dallas, Tex.). As a loading control, the membrane was subsequently stripped and re-probed with an antibody against total ERK1/2 (clone 127F5, Cell Signaling Technology).
# Concurrent to ligand binding and activation, CCR3 undergoes ligand-induced desensitization and internalization (Zimmermann, et al. (1999) J. Biol. Chem. 274:12611-12618). As part of the desensitization process, CCR3 is degraded. This is thought to occur via β-arrestin recruitment to phosphorylated CCR3 and subsequent sequestration of the receptor into endosomal compartments, eventually leading to degradation. β-arrestin signaling is central in this process and is characterized by a late activation of signaling pathways such as MAPK/ERK1/2, in contrast to acute activation by G proteins. […] Therefore, the R3-2-1 peptide is a biased antagonist in that it inhibits the […] of CCL11 ligand-induced β-arrestin signaling, whereas the small molecule inhibitors are unbiased antagonists.
# CCR3 [2] = target: T1, CCR3; assay: Chemotaxis assay (Transwell), blood eosinophils; format: cell-based; parameters: host or cells: AML14.3D10-CCR3 (eosinophilic myelocytic cell line, kept under G418); conditions: scramble peptide control
# Text: Blood eosinophils were purified from anti-coagulated blood drawn from mild allergic asthmatic subjects. Peripheral blood was subjected to density gradient centrifugation over FICOLL-PAQUE® Plus (GE Healthcare, Pittsburgh, Pa.) media to obtain a pellet containing erythrocytes and granulocytes. After erythrocyte lysis via hypotonic shock, eosinophils were purified by negative selection using a cocktail of antibody-conjugated magnetic beads against non-eosinophils (Miltenyi Biotec, Auburn, Calif.). The eosinophils were resuspended in X-VIVO 10 without phenol red. The purity and viability of the eosinophils obtained was routinely >97% as assessed by Hema III and trypan blue staining, respectively.
# Cell migration was determined using a 96-well TRANSWELL® system (Corning, Tewksbury, Mass.). Briefly, 200 μl chemoattractant or control medium was added to the lower chamber while 100 μl cells were added to the upper chamber. The two chambers were separated by a polycarbonate filter with 5 μm pores. For AML14.3D10-CCR3 cells, 2×10^5 cells/well were resuspended in RPMI-1640+0.1% BSA and allowed to migrate for 4 hours at 37° C. […] Migrated cells were counted using a Beckman QUANTA SC flow cytometer. All experiments were performed in duplicate. Checkerboard analysis was done to distinguish chemotaxis from chemokinesis.
# Primary eosinophils and the stable CCR3+eosinophilic myelocytic cell line, AML14.3D10-CCR3 (Daugherty, et al. (1996) J. Exp. Med. 183:2349-2354) undergo CCR3-mediated chemotaxis induced by multiple chemokines including eotaxin/CCL11, RANTES/CCL5, MCP-4/CCL13, and MEC/CCL28 (Daugherty, et al. (1996) J. Exp. Med. 183:2349-2354; Pan, et al. (2000) J. Immunol. 165:2943-2949). […] In addition, R3-2-1 inhibits chemotaxis of both AML14.3D10-CCR3 and blood eosinophils induced by CCL11/Eotaxin-1, CCL24/Eotaxin-2, and CCL26/Eotaxin-3 in a dose-dependent fashion (Table 3).
# CCR3 [3] = target: T1, CCR3; assay: CCR3 surface expression and internalization by flow cytometry, AML14.3D10-CCR3 cells; format: cell-based; parameters: host or cells: AML14.3D10-CCR3 (eosinophilic myelocytic cell line, kept under G418); conditions: for CCL11-induced receptor internalization: 1 μM, added concurrently with 12 nM CCL11; for CCR3 internalization or surface accumulation on prolonged treatment: 1 μM for 24, 48 or 72 hour, with or without CCL11 (12 nM)
# Procedure: Error bars represent SEM. *p<0.05, compared to untreated cells; n=3.
# To assess surface expression of CCR3, cells were stained using PE-conjugated anti-human CCR3 antibody (clone 5E8, BioLegend) or PE-conjugated isotype-matched control after blocking with 10% human AB serum. To determine ligand-induced CCR3 internalization, cells were incubated with various chemokines for 1 hour at 37° C., washed once in staining buffer (PBS+0.5% BSA+0.1% NaN3) before being stained as above. After antibody staining, cells were fixed in 2% paraformaldehyde and analyzed on a QUANTA SC flow cytometer (Beckman Coulter, Indianapolis, Ind.).
# [4] = system: eosinophil recruitment into the esophageal epithelium; assay: Mouse model of EoE, oxazalone-challenged L2-IL5 transgenic mice; format: in vivo; conditions: i.v., 24 hours after last OXA challenge
# Procedure: Skin sensitized L2-IL5 transgenic mice received topical esophageal oxazalone (OXA) challenges by gavage (i.e.) on days 5, 8 and 12 (FIG. 5A). R3-2-1 peptide nanoparticles, control peptide (R3-2-3) or CCR3 inhibitor UCB35625 (UCB) were given immediately before on days 5, 8, 10 and 12 (FIG. 5A). Esophageal eosinophilia was assessed 24 hours after the last OXA challenge and treatment (day 13). […] Error bars represent SEM.
# Mice were treated i.v. with R3-2-1 peptide, scrambled R3-2-3 control peptide ([…]-PEG27-NH2; SEQ ID NO:24), or the allosteric non-selective CCR3 inhibitor, UCB35625. Eosinophil recruitment into the esophageal epithelium was assessed 24 hours after the last OXA challenge by counting eosinophils in 9 high power fields (hpf) covering the total esophagus or 3 hpf covering the distal esophagus.
# CCR3 [5] = target: T1, CCR3; assay: Chemotaxis assay (Transwell), AML14.3D10-CCR3 cells; format: cell-based; parameters: host or cells: AML14.3D10-CCR3 (eosinophilic myelocytic cell line, kept under G418); conditions: for tolerance to inhibition of CCL11-induced chemotaxis: 1 μM for 24, 48 or 72 hour, CCL11 12 nM; for inhibition of CCR3-mediated chemotaxis induced by Eotaxin/CCL11, RANTES/CCL5 and MEC/CCL28: AML14.3D10-CCR3 cells, R3-2-1 0.4, 2 or 10 μM
# Procedure: AML14.3D10-CCR3 (ATCC, Manassas, Va.; Daugherty, et al. (1996) J. Exp. Med. 183:2349-2354) were maintained in RPMI-1640 supplemented with 10% FBS, 1.5 g/L sodium bicarbonate, 4.5 g/L glucose, 2 mM L-glutamine, 10 mM HEPES, 1 mM sodium pyruvate, 50 μM β-mercaptoethanol, and 2 mg/ml G418 in a humidified incubator with 5% CO2 at 37° C.
# Cell migration was determined using a 96-well […]® system (Corning, Tewksbury, Mass.). […] The two chambers were separated by a polycarbonate filter with 5 μm pores. For AML14.3D10-CCR3 cells, 2×10^5 cells/well were resuspended in RPMI-1640+0.1% BSA and allowed to migrate for 4 hours at 37° C. For blood eosinophils, 1×10^5 cells/well were resuspended in X-VIVO 10+0.5% BSA and allowed to migrate for 3 hours at 37° C. Migrated cells were counted using a Beckman QUANTA SC flow cytometer. All experiments were performed in duplicate. Checkerboard analysis was done to distinguish chemotaxis from chemokinesis.
# Primary eosinophils and the stable CCR3+eosinophilic myelocytic cell line, AML14.3D10-CCR3 (Daugherty, et al. (1996) J. Exp. Med. 183:2349-2354) undergo CCR3-mediated chemotaxis induced by multiple chemokines including eotaxin/CCL11, RANTES/CCL5, MCP-4/CCL13, and MEC/CCL28 (Daugherty, et al. (1996) J. Exp. Med. 183:2349-2354; Pan, et al. (2000) J. Immunol. 165:2943-2949).
Compound,cytotoxicity (4DE4-CCR3 cells),acute (2-5 minutes) and late (30 minutes) phase phosphorylation of ERK1/2 (ERK1/2 phosphorylation),CCL11-induced receptor internalization (CCR3 [3]),also measured
Ac-KDDDQFVPPLYSLVFTVGLLGNVVVVMILI [TM1],moderately cytotoxic,–,–,–
Ac-KDDDLLSGFYHTGLYSEIFFIILLTI [TM3],–,–,–,inhibition of eotaxin-induced chemotaxis of 4DE4-CCR3 cells (CCR3 [1]): no significant CCR3 antagonism
"YLFLLVTVFHIWLPHNRGHVWGFDDD-PEG27-NH2 (YLFLLVTVFHIWLPHNRGHVWGFDDD-{PEG27′-NH2}) [Peptide R3-2-3, reference compound]",–,does not inhibit either acute or late phase phosphorylation,neither R3-2-1 (1 μM) nor R3-2-3 (1 μM) interfere with CCL11-induced receptor internalization,"CCL11-, CCL24-, or CCL26-induced chemotaxis of blood eosinophils (CCR3 [2]): did not inhibit"
CDDDVMLVTEVIAYSHCCMNPVIYAFV [TM7],highly cytotoxic,–,–,–
LIFVIMAVFFIFWTPYNVAILDDDC [TM6],highly cytotoxic,–,–,–
"CC[N+]1(C/C2=C/CCCCCC2)CCC(NC(=O)C2c3cc(Cl)ccc3Oc3ccc(Cl)cc32)CC1.[I-] (stereo not drawn) [UCB35625, 1,4-trans-1-(1-Cycloocten-1-ylmethyl)-4-[[(2,7-dichloro-9H-xanthen-9-yl)carbonyl]amino]-1-ethylpiperidinium iodide, reference compound]",–,inhibits the late phase to a higher degree than the early phase phosphorylation,significantly inhibit chemokine-induced CCR3 internalization,"eosinophil recruitment into distal and total esophageal epithelium [4]: had no effect; also recorded: ineffective in reducing eosinophil recruitment; tolerance to inhibition of CCL11-induced chemotaxis (CCR3 [5]): slowly lose their ability to antagonize CCL11-induced chemotaxis; inhibition of CCR3-mediated chemotaxis induced by Eotaxin/CCL11, RANTES/CCL5 and MEC/CCL28 (CCR3 [5]): potent inhibitor of chemotaxis induced by multiple CCR3 agonists in vitro; CCR3 internalization or surface accumulation on prolonged treatment (CCR3 [3]): surface accumulation"
"COC(=O)[C@H](Cc1ccc([N+](=O)[O-])cc1)NC(=O)c1cccc2ccccc12 [SB328437, N-(1-Naphthalenylcarbonyl)-4-nitro-L-phenylalanine methyl ester, reference compound]",–,inhibits both acute and late phase phosphorylation,significantly inhibit chemokine-induced CCR3 internalization,"tolerance to inhibition of CCL11-induced chemotaxis (CCR3 [5]): slowly lose their ability to antagonize CCL11-induced chemotaxis; inhibition of CCR3-mediated chemotaxis induced by Eotaxin/CCL11, RANTES/CCL5 and MEC/CCL28 (CCR3 [5]): only inhibits CCL11-induced but not CCL5- or CCL28-induced chemotaxis; CCR3 internalization or surface accumulation on prolonged treatment (CCR3 [3]): surface accumulation"
LLNLAISDLLFLVTLPFWIHYDDDC [TM2],undetectable or low cytotoxicity,–,–,–
CDDDTIFCLVLPLLVMAICYTGII [TM5],highly cytotoxic,–,–,–
Ac-VTFGVITSIVTWGLAVLAALPEFIFDDDK [TM4],–,–,–,inhibition of eotaxin-induced chemotaxis of 4DE4-CCR3 cells (CCR3 [1]): no significant CCR3 antagonism
